Results: ChEMBL document CHEMBL1130277, “Three-dimensional quantitative structure-activity relationships from molecular similarity matrices and genetic neural networks. 2. Applications” (J Med Chem, 1997)

Target: T1, Aryl hydrocarbon receptor (Homo sapiens, UniProt P35869)
T1 sequence (P35869 whole entry): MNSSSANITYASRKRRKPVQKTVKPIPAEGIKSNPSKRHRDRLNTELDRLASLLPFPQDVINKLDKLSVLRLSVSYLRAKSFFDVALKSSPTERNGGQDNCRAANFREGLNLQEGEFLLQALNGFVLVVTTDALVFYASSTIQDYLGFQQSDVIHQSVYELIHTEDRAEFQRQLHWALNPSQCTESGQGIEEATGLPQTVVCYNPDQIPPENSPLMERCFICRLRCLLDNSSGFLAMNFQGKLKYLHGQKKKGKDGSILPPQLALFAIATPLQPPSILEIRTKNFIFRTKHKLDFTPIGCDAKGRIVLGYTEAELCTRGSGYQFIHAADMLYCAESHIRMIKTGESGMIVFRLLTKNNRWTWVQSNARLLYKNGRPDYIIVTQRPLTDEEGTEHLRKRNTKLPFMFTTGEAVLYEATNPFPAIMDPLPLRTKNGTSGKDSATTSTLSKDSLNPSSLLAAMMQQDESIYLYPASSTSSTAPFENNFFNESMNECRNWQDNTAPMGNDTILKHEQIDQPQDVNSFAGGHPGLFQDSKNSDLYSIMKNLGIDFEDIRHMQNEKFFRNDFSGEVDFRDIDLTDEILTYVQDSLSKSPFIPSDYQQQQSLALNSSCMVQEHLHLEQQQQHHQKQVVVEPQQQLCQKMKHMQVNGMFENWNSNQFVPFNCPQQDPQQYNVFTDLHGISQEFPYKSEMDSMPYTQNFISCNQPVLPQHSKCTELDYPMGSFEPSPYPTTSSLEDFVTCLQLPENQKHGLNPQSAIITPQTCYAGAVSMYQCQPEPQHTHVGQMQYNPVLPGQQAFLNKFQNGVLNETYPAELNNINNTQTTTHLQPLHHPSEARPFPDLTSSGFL
Description: Affinity on cytosolic Aromatic hydrocarbon receptor (Ah)

Compound	EC50
Clc1cc2oc3c(Cl)cccc3c2c(Cl)c1Cl	0.35 µM
Brc1cc(Br)c2c(c1)Oc1cc(Br)cc(Br)c1O2	0.0929 µM
Brc1ccc2c(c1)Oc1ccc(Br)cc1O2	0.0155 µM
Clc1cc2c(cc1Cl)Oc1c(Cl)c(Cl)c(Cl)c(Cl)c1O2	0.28 µM
Clc1cc(-c2ccc(Cl)c(Cl)c2Cl)cc(Cl)c1Cl	5 µM
Clc1cc(Cl)c(-c2cc(Cl)c(Cl)c(Cl)c2)cc1Cl	16 µM
Clc1cc(Cl)c2c(c1)Oc1cc(Cl)c(Cl)cc1O2	0.794 µM
Clc1ccc2c(c1)Oc1cc(Cl)c(Cl)cc1O2	0.071 µM
Clc1cc2oc3c(Cl)cc(Cl)c(Cl)c3c2cc1Cl	1.3 µM
Clc1cc2c(cc1Cl)Oc1cc(Br)c(Br)cc1O2	0.00148 µM
Brc1ccc2c(c1)Oc1cc(Br)c(Br)cc1O2	0.00117 µM
Clc1c(Cl)c(Cl)c2c(c1Cl)Oc1c(Cl)c(Cl)c(Cl)c(Cl)c1O2	10 µM
Clc1ccc(-c2cc(Cl)c(Cl)c(Cl)c2Cl)cc1Cl	7.1 µM
Clc1ccc2oc3c(Cl)cc(Cl)c(Cl)c3c2c1	10 µM
Clc1cc(Cl)c2c(c1Cl)Oc1ccccc1O2	13 µM
Clc1ccc2c(c1)oc1cc(Cl)c(Cl)c(Cl)c12	0.219 µM
Clc1ccc2c(oc3c(Cl)cc(Cl)c(Cl)c32)c1Cl	0.0678 µM
Clc1cc2c(oc3c(Cl)cccc32)c(Cl)c1Cl	0.35 µM
Clc1cc(Cl)c2oc3cc(Cl)c(Cl)cc3c2c1	0.22 µM
Clc1cc2c(oc3c(Cl)cc(Cl)c(Cl)c32)c(Cl)c1Cl	8.3 µM
Clc1cc(Cl)c2oc3c(Cl)cc(Cl)c(Cl)c3c2c1	3.1 µM
Brc1cc(Br)c2c(c1)Oc1cc(Br)c(Br)cc1O2	0.002 µM
Clc1cc2c(cc1Cl)Oc1c(cc(Cl)c(Cl)c1Cl)O2	0.0794 µM
Clc1ccc(-c2cc(Cl)c(Cl)cc2Cl)cc1Cl	9.1 µM
Clc1cc2oc3cc(Cl)c(Cl)c(Cl)c3c2cc1Cl	0.0741 µM
Clc1cc2c(cc1Br)Oc1cc(Br)c(Cl)cc1O2	0.000447 µM
Clc1cc(Cl)c2c(c1)oc1c(Cl)cc(Cl)c(Cl)c12	20 µM

Compound	EC50
Clc1cccc2c1Oc1ccccc1O2	100 µM
Brc1cc2c(cc1Br)Oc1c(cc(Br)c(Br)c1Br)O2	0.00661 µM
Clc1ccc(-c2cc(Cl)c(Cl)c(Cl)c2)cc1	28 µM
Clc1cc2c(cc1Cl)Oc1c(ccc(Cl)c1Cl)O2	0.16 µM
Clc1cc(Cl)c2c(c1)oc1c(Cl)cccc12	4.37 µM
Clc1cc2c(cc1Cl)Oc1cc(Br)c(Cl)cc1O2	0.0115 µM
Clc1cc(Cl)c(-c2cc(Cl)c(Cl)c(Cl)c2)c(Cl)c1	99.1 µM
Brc1ccc2c(c1)Oc1ccccc1O2	0.295 µM
Clc1cccc2c1oc1ccccc12	1000 µM
Clc1ccc2c(c1)oc1ccccc12	42 µM
Clc1cc(-c2ccccc2)c(Cl)c(Cl)c1Cl	140 µM
Clc1ccc(-c2cc(Cl)c(Cl)c(Cl)c2Cl)cc1	4.1 µM
Clc1cc(Cl)c2c(c1)oc1c(Cl)c(Cl)c(Cl)cc12	0.2 µM
Clc1cc2oc3c(Cl)c(Cl)c(Cl)cc3c2cc1Cl	0.0151 µM
Clc1ccc2c(c1)oc1c(Cl)c(Cl)c(Cl)cc12	0.0251 µM
Clc1ccc2c(c1)Oc1c(Cl)c(Cl)c(Cl)c(Cl)c1O2	6.46 µM
Clc1cc(Cl)c2c(c1)oc1ccc(Cl)cc12	85.1 µM
Clc1ccc(-c2ccc(Cl)c(Cl)c2Cl)cc1Cl	4.27 µM
Brc1cc2c(cc1Br)Oc1cc(Br)c(Br)cc1O2	0.0015 µM
Clc1ccc2c(c1)Oc1cc(Cl)ccc1O2	3.2 µM
Clc1cc2oc3c(Cl)c(Cl)cc(Cl)c3c2cc1Cl	0.2 µM
Clc1cc2oc3c(Cl)c(Cl)c(Cl)c(Cl)c3c2cc1Cl	0.23 µM
Clc1cc2c(oc3c(Cl)c(Cl)c(Cl)cc32)c(Cl)c1Cl	0.0468 µM
Clc1c(Cl)c(Cl)c2c(c1Cl)Oc1ccccc1O2	1.3 µM
Clc1ccc2oc3c(Cl)c(Cl)c(Cl)c(Cl)c3c2c1	0.12 µM
Brc1cc2c(cc1Br)Oc1c(Br)c(Br)cc(Br)c1O2	0.017 µM
